From the NIST ThermoML archive (doi:10.1021/acs.jced.8b00601) come the findings set out here.

Molecules are shown by their SMILES. ± gives the expanded uncertainty stated by the source.

This data set is described as follows: activity coefficient (dimensionless); of the first substance listed, at infinite dilution; xn = mol fraction of the nth substance listed. Conditions: 101.33 kPa, Liquid, Chromatography, x1 = 0.

`CC(C)O` [propan-2-ol] + O=S(=O)([N-]S(=O)(=O)C(F)(F)F)C(F)(F)F.O=S(=O)([N-]S(=O)(=O)C(F)(F)F)C(F)(F)F.O=S(=O)([N-]S(=O)(=O)C(F)(F)F)C(F)(F)F.c1ccc2cc(-n3cc[n+](Cc4cc(C[n+]5ccn(-c6ccc7ccccc7c6)c5)cc(C[n+]5ccn(-c6ccc7ccccc7c6)c5)c4)c3)ccc2c1: the activity coefficient (313 K) worked out at 1.89 ± 0.24, the activity coefficient (323 K) worked out at 1.24 ± 0.16, the activity coefficient (333 K) amounted to 0.965 ± 0.11 and the activity coefficient (343 K) worked out at 0.693 ± 0.091.

Take `c1ccncc1` [pyridine] + O=S(=O)([N-]S(=O)(=O)C(F)(F)F)C(F)(F)F.O=S(=O)([N-]S(=O)(=O)C(F)(F)F)C(F)(F)F.O=S(=O)([N-]S(=O)(=O)C(F)(F)F)C(F)(F)F.c1ccc2cc(-n3cc[n+](Cc4cc(C[n+]5ccn(-c6ccc7ccccc7c6)c5)cc(C[n+]5ccn(-c6ccc7ccccc7c6)c5)c4)c3)ccc2c1: the activity coefficient by setting is: (323 K) 0.164 ± 0.031; (333 K) 0.173 ± 0.032; (343 K) 0.198 ± 0.033.

As for `ClC(Cl)(Cl)Cl` [tetrachloromethane] + O=S(=O)([N-]S(=O)(=O)C(F)(F)F)C(F)(F)F.O=S(=O)([N-]S(=O)(=O)C(F)(F)F)C(F)(F)F.O=S(=O)([N-]S(=O)(=O)C(F)(F)F)C(F)(F)F.c1ccc2cc(-n3cc[n+](Cc4cc(C[n+]5ccn(-c6ccc7ccccc7c6)c5)cc(C[n+]5ccn(-c6ccc7ccccc7c6)c5)c4)c3)ccc2c1, the activity coefficient by setting is: (313 K) 4.72 ± 0.51; (323 K) 4.27 ± 0.47; (333 K) 3.29 ± 0.38; (343 K) 2.6 ± 0.31.

In the case of `Cc1ccccc1` [toluene] + O=S(=O)([N-]S(=O)(=O)C(F)(F)F)C(F)(F)F.O=S(=O)([N-]S(=O)(=O)C(F)(F)F)C(F)(F)F.O=S(=O)([N-]S(=O)(=O)C(F)(F)F)C(F)(F)F.c1ccc2cc(-n3cc[n+](Cc4cc(C[n+]5ccn(-c6ccc7ccccc7c6)c5)cc(C[n+]5ccn(-c6ccc7ccccc7c6)c5)c4)c3)ccc2c1, the activity coefficient (313 K) turned out to be 3.82 ± 0.43, the activity coefficient (323 K) was found to be 3.05 ± 0.35, the activity coefficient (333 K) was found to be 2.42 ± 0.29 and the activity coefficient (343 K) amounted to 1.69 ± 0.23.
